{"source": "the kinase profiling compilation of Christmann-Franck et al. (2016)", "key": {"ADCK3 (human)": {"target": "ADCK3 (human) (UniProt Q8NI60)"}, "ATM (human)": {"target": "ATM (human) (UniProt Q13315)"}, "BMP2K (human)": {"target": "BMP2K (human) (UniProt Q9NSY1)", "sequence (Q9NSY1 whole entry, looked up)": "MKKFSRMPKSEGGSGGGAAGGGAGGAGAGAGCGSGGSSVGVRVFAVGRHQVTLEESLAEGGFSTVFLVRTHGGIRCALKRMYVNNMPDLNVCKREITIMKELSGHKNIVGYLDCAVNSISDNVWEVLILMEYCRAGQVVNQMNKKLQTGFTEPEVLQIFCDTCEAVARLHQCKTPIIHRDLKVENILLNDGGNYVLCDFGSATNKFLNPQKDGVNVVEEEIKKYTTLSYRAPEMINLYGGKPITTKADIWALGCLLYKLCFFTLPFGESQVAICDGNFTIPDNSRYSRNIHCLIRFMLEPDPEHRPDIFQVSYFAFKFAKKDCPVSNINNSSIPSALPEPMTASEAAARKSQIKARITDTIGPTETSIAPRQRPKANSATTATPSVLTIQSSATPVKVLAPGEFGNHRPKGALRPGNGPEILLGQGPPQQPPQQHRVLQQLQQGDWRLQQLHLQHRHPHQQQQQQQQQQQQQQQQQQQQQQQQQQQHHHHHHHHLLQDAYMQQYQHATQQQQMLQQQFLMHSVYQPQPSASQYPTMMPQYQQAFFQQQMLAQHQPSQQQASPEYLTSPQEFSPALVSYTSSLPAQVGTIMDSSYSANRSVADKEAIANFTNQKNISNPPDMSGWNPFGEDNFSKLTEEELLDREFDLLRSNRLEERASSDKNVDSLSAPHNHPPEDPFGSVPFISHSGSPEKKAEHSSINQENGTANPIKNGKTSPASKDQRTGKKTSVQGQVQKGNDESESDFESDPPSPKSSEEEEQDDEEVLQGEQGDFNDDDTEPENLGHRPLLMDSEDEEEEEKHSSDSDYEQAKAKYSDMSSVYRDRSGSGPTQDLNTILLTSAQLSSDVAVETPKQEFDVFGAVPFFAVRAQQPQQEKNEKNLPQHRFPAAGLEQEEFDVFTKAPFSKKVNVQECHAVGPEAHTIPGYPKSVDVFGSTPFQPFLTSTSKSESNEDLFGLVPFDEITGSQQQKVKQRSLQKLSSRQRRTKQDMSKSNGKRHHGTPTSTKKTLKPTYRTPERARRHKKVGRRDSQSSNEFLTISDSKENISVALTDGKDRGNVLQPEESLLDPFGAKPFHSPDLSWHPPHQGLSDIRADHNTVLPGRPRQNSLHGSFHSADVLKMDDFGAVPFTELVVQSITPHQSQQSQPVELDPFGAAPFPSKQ"}, "BRAF (human)": {"target": "BRAF (human) (UniProt P15056)"}, "CAMK2D (human)": {"target": "CAMK2D (human) (UniProt Q13557)"}, "CAMKK2 (human)": {"target": "CAMKK2 (human) (UniProt Q96RR4)"}, "CDK14 (human)": {"target": "CDK14 (human) (UniProt O94921)"}, "CSNK2A1 (human)": {"target": "CSNK2A1 (human) (UniProt P68400)"}, "CSNK2A2 (human)": {"target": "CSNK2A2 (human) (UniProt P19784)"}, "EPHA4 (human)": {"target": "EPHA4 (human) (UniProt P54764)"}, "FER (human)": {"target": "FER (human) (UniProt P16591)", "sequence (P16591 whole entry, looked up)": "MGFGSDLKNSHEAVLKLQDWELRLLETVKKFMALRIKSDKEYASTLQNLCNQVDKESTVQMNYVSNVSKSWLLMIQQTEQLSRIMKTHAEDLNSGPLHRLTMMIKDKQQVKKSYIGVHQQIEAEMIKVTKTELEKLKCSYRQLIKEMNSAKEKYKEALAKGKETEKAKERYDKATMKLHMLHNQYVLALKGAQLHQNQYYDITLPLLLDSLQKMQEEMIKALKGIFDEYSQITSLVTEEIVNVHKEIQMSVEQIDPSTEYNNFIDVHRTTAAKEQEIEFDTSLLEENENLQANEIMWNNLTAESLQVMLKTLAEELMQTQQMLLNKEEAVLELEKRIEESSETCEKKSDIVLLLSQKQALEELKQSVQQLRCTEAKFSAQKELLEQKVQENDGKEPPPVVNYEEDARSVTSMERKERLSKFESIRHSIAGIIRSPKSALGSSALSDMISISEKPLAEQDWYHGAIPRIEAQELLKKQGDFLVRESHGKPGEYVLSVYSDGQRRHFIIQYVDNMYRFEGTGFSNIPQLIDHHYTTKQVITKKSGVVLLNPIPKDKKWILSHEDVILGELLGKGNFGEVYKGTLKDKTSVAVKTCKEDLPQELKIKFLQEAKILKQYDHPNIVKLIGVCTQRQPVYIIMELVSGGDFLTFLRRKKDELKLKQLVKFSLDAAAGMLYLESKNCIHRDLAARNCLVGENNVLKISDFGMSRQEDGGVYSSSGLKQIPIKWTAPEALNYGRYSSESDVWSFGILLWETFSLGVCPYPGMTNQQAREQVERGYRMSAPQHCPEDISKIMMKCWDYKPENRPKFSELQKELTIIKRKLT"}, "FGR (human)": {"target": "FGR (human) (UniProt P09769)"}, "FYN (human)": {"target": "FYN (human) (UniProt P06241)", "sequence (P06241 whole entry, looked up)": "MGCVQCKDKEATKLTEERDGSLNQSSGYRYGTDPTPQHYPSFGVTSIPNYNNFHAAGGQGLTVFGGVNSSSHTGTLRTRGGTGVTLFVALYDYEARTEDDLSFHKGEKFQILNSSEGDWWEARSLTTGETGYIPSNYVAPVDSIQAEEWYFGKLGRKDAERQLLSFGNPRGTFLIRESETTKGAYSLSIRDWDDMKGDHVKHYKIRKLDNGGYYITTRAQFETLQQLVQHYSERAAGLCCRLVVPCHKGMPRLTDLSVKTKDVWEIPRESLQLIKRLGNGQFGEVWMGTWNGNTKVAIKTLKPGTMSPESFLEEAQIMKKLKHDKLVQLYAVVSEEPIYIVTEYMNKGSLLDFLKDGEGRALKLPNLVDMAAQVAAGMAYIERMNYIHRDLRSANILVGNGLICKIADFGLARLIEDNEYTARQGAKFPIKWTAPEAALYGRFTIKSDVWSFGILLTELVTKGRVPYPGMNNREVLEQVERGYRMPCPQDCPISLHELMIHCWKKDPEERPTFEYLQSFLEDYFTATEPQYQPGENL"}, "GAK (human)": {"target": "GAK (human) (UniProt O14976)"}, "ITK (human)": {"target": "ITK (human) (UniProt Q08881)"}, "JAK1 JH1 JH2 (human)": {"target": "JAK1 JH1 JH2 (human) (UniProt P23458)"}, "JAK2 JH1 JH2 (human)": {"target": "JAK2 JH1 JH2 (human) (UniProt O60674)"}, "JAK3 JH1 JH2 (human)": {"target": "JAK3 JH1 JH2 (human) (UniProt P52333)"}, "LYN (human)": {"target": "LYN (human) (UniProt P07948)"}, "MAP2K2 (human)": {"target": "MAP2K2 (human) (UniProt P36507)", "sequence (P36507 whole entry, looked up)": "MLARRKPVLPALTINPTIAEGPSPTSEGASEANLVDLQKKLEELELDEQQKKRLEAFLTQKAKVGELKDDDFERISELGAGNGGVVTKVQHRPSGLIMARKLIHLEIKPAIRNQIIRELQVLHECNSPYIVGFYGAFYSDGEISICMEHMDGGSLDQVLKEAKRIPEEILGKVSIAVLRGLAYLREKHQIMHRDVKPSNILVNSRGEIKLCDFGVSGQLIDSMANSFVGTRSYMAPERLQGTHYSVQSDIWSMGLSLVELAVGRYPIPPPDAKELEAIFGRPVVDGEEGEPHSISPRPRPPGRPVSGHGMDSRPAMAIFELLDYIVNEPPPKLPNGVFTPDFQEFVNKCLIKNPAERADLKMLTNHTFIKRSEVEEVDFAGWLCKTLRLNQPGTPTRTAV"}, "MAP3K2 (human)": {"target": "MAP3K2 (human) (UniProt Q9Y2U5)"}, "MAP3K4 (human)": {"target": "MAP3K4 (human) (UniProt Q9Y6R4)"}, "MAP4K2 (human)": {"target": "MAP4K2 (human) (UniProt Q12851)"}, "MAP4K5 (human)": {"target": "MAP4K5 (human) (UniProt Q9Y4K4)"}, "MAPK1 (human)": {"target": "MAPK1 (human) (UniProt P28482)"}, "MAPK9 (human)": {"target": "MAPK9 (human) (UniProt P45984)"}, "MARK2 (human)": {"target": "MARK2 (human) (UniProt Q7KZI7)"}, "MTOR (human)": {"target": "MTOR (human) (UniProt P42345)"}, "NEK7 (human)": {"target": "NEK7 (human) (UniProt Q8TDX7)", "sequence (Q8TDX7 whole entry, looked up)": "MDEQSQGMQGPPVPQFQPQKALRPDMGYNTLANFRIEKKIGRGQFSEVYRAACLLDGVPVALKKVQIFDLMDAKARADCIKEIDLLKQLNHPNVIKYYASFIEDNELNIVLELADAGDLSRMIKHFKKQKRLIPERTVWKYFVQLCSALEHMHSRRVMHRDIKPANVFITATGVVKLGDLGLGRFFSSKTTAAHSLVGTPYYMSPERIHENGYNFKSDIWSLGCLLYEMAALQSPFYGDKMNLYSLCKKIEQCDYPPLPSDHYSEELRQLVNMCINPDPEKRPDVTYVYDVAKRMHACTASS"}, "NEK9 (human)": {"target": "NEK9 (human) (UniProt Q8TD19)"}, "PAK4 (human)": {"target": "PAK4 (human) (UniProt O96013)"}, "PDPK1 (human)": {"target": "PDPK1 (human) (UniProt O15530)"}, "PKN1 (human)": {"target": "PKN1 (human) (UniProt Q16512)", "sequence (Q16512 whole entry, looked up)": "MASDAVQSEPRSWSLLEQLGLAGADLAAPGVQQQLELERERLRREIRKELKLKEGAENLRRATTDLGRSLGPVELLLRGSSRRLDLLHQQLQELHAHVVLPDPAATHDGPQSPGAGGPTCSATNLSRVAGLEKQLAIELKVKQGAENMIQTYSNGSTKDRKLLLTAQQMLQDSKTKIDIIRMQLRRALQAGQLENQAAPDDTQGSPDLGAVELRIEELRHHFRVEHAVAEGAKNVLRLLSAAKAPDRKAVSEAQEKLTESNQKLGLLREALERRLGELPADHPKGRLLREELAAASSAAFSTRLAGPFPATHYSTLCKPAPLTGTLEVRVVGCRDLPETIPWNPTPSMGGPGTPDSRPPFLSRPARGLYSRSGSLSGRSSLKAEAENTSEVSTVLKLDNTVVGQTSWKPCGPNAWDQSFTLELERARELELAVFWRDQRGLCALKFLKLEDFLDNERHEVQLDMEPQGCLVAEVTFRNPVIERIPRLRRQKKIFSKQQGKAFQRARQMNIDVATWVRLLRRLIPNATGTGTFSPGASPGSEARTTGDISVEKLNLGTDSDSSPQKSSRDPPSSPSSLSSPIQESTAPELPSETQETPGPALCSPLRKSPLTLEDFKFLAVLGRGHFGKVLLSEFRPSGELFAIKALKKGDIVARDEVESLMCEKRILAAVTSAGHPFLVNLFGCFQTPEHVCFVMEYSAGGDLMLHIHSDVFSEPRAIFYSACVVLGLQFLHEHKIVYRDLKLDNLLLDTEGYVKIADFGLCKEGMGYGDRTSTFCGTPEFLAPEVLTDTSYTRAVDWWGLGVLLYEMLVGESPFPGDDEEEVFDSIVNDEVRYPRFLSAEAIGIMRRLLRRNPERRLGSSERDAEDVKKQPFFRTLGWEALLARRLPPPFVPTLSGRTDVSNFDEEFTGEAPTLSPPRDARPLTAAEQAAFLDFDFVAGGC"}, "RPS6KA1 KD1 KD2 (human)": {"target": "RPS6KA1 KD1 KD2 (human) (UniProt Q15418)"}, "SGK223 (human)": {"target": "SGK223 (human) (UniProt Q86YV5)"}, "SIK3 (human)": {"target": "SIK3 (human) (UniProt Q9Y2K2)"}, "STK10 (human)": {"target": "STK10 (human) (UniProt O94804)"}, "STK17B (human)": {"target": "STK17B (human) (UniProt O94768)"}, "TAOK2 (human)": {"target": "TAOK2 (human) (UniProt Q9UL54)"}, "TAOK3 (human)": {"target": "TAOK3 (human) (UniProt Q9H2K8)"}, "TEC (human)": {"target": "TEC (human) (UniProt P42680)"}, "TNK2 (human)": {"target": "TNK2 (human) (UniProt Q07912)"}, "ULK3 (human)": {"target": "ULK3 (human) (UniProt Q6PHR2)"}, "WEE1 (human)": {"target": "WEE1 (human) (UniProt P30291)", "sequence (P30291 whole entry, looked up)": "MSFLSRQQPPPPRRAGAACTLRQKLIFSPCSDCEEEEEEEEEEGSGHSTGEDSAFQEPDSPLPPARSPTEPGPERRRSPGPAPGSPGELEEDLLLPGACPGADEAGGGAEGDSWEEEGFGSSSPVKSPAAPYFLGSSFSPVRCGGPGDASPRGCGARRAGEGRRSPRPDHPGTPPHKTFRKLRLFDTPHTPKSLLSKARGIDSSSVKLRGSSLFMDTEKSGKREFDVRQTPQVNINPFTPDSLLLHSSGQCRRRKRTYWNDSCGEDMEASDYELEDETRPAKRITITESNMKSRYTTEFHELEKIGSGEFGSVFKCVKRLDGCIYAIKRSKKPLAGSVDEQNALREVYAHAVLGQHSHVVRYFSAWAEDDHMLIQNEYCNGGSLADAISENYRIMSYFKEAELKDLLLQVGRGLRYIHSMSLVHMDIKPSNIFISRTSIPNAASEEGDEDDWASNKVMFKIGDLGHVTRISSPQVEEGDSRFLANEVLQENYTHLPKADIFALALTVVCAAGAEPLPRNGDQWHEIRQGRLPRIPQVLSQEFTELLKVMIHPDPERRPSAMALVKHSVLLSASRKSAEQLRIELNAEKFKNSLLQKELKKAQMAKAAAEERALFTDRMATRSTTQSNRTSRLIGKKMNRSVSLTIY"}}, "data": [{"smiles": "CN1CC[C@H](c2c(O)cc(O)c3c(=O)cc(-c4ccccc4Cl)oc23)[C@H](O)C1", "values": [{"measurement": "IC50", "setting": "ADCK3 (human)", "result": "> 10", "unit": "µM"}, {"measurement": "IC50", "setting": "ATM (human)", "result": "> 10", "unit": "µM"}, {"measurement": "IC50", "setting": "BMP2K (human)", "result": "> 10", "unit": "µM"}, {"measurement": "IC50", "setting": "BRAF (human)", "result": "> 10", "unit": "µM"}, {"measurement": "IC50", "setting": "CAMK2D (human)", "result": 7.67, "unit": "µM"}, {"measurement": "IC50", "setting": "CAMKK2 (human)", "result": 0.925, "unit": "µM"}, {"measurement": "IC50", "setting": "CDK14 (human)", "result": 2.96, "unit": "µM"}, {"measurement": "IC50", "setting": "CSNK2A1 (human)", "result": 9.42, "unit": "µM"}, {"measurement": "IC50", "setting": "CSNK2A2 (human)", "result": "> 10", "unit": "µM"}, {"measurement": "IC50", "setting": "EPHA4 (human)", "result": "> 10", "unit": "µM"}, {"measurement": "IC50", "setting": "FER (human)", "result": "> 10", "unit": "µM"}, {"measurement": "IC50", "setting": "FGR (human)", "result": "> 10", "unit": "µM"}, {"measurement": "IC50", "setting": "FYN (human)", "result": "> 10", "unit": "µM"}, {"measurement": "IC50", "setting": "GAK (human)", "result": "> 10", "unit": "µM"}, {"measurement": "IC50", "setting": "ITK (human)", "result": "> 10", "unit": "µM"}, {"measurement": "IC50", "setting": "JAK1 JH1 JH2 (human)", "result": "> 10", "unit": "µM"}, {"measurement": "IC50", "setting": "JAK2 JH1 JH2 (human)", "result": "> 10", "unit": "µM"}, {"measurement": "IC50", "setting": "JAK3 JH1 JH2 (human)", "result": "> 10", "unit": "µM"}, {"measurement": "IC50", "setting": "LYN (human)", "result": "> 10", "unit": "µM"}, {"measurement": "IC50", "setting": "MAP2K2 (human)", "result": "> 10", "unit": "µM"}, {"measurement": "IC50", "setting": "MAP3K2 (human)", "result": "> 10", "unit": "µM"}, {"measurement": "IC50", "setting": "MAP3K4 (human)", "result": "> 10", "unit": "µM"}, {"measurement": "IC50", "setting": "MAP4K2 (human)", "result": "> 10", "unit": "µM"}, {"measurement": "IC50", "setting": "MAP4K5 (human)", "result": "> 10", "unit": "µM"}, {"measurement": "IC50", "setting": "MAPK1 (human)", "result": "> 10", "unit": "µM"}, {"measurement": "IC50", "setting": "MAPK9 (human)", "result": "> 10", "unit": "µM"}, {"measurement": "IC50", "setting": "MARK2 (human)", "result": "> 10", "unit": "µM"}, {"measurement": "IC50", "setting": "MTOR (human)", "result": "> 10", "unit": "µM"}, {"measurement": "IC50", "setting": "NEK7 (human)", "result": "> 10", "unit": "µM"}, {"measurement": "IC50", "setting": "NEK9 (human)", "result": "> 10", "unit": "µM"}, {"measurement": "IC50", "setting": "PAK4 (human)", "result": "> 10", "unit": "µM"}, {"measurement": "IC50", "setting": "PDPK1 (human)", "result": "> 10", "unit": "µM"}, {"measurement": "IC50", "setting": "PKN1 (human)", "result": "> 10", "unit": "µM"}, {"measurement": "IC50", "setting": "RPS6KA1 KD1 KD2 (human)", "result": 8.74, "unit": "µM"}, {"measurement": "IC50", "setting": "SGK223 (human)", "result": "> 10", "unit": "µM"}, {"measurement": "IC50", "setting": "SIK3 (human)", "result": "> 10", "unit": "µM"}, {"measurement": "IC50", "setting": "STK10 (human)", "result": "> 10", "unit": "µM"}, {"measurement": "IC50", "setting": "STK17B (human)", "result": "> 10", "unit": "µM"}, {"measurement": "IC50", "setting": "TAOK2 (human)", "result": 8.47, "unit": "µM"}, {"measurement": "IC50", "setting": "TAOK3 (human)", "result": 9.47, "unit": "µM"}, {"measurement": "IC50", "setting": "TEC (human)", "result": "> 10", "unit": "µM"}, {"measurement": "IC50", "setting": "TNK2 (human)", "result": "> 10", "unit": "µM"}, {"measurement": "IC50", "setting": "ULK3 (human)", "result": "> 10", "unit": "µM"}, {"measurement": "IC50", "setting": "WEE1 (human)", "result": "> 10", "unit": "µM"}]}]}
